In article PMC5599593, “A general reaction mechanism for carbapenem hydrolysis by mononuclear and binuclear metallo-β-lactamases” (Nature Communications, 2017):

Legend:
Type in all cases: biochemical
bi-Zn(II)-BcII = molecular target: T1, bi-Zn(II)-BcII (Bacillus cereus, UniProt P04190); assay: rapid-freeze-quench X-ray absorption spectroscopy; settings: 10 ms reaction
T1 construct: gene blm; expressed as N-terminal GST fusion, GST removed with thrombin; bi-Zn(II) form

mono-Zn(II)-Sfh-I = molecular target: T2, mono-Zn(II)-Sfh-I (Serratia fonticola, UniProt Q9RMI1); assay: stopped-flow absorption (pre-steady state); RFQ Zn K-edge XAS of ES complex; settings: 50 mM Hepes pH 7, 4 °C
T2 construct: gene sfhI; expressed from pET-26b; anion exchange and size exclusion purification; mono-Zn(II) form
T2 sequence (Q9RMI1 entry or part of it): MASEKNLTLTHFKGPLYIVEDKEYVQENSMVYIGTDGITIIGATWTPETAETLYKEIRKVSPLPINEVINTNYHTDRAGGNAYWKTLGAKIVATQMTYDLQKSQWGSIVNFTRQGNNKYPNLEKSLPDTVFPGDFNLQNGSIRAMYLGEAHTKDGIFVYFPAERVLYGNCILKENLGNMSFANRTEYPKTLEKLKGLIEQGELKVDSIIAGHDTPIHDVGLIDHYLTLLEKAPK

bi-Zn(II)-NDM-1 [1] = molecular target: T3, bi-Zn(II)-NDM-1 (Klebsiella pneumoniae, UniProt C7C422); assay: stopped-flow absorption, single turnover; settings: 100 mM Hepes pH 7.5, 200 mM NaCl, 300 µM ZnSO4, 6 °C
T3 construct: gene blaNDM-1
T3 sequence (C7C422 27-270 limits assumed): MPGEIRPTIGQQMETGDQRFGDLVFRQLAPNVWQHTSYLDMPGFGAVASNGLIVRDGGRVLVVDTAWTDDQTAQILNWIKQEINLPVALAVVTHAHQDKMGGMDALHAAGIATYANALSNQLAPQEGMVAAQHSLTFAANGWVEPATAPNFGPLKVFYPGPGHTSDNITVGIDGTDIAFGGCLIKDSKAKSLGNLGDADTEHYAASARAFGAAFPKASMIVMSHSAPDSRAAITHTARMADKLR

bi-Zn(II)-NDM-1 [2] = molecular target: T3, bi-Zn(II)-NDM-1; assay: stopped-flow absorption; settings: 100 mM Hepes pH 7.5, 200 mM NaCl, 300 µM ZnSO4, 6 °C

T1 sequence (P04190 31-257): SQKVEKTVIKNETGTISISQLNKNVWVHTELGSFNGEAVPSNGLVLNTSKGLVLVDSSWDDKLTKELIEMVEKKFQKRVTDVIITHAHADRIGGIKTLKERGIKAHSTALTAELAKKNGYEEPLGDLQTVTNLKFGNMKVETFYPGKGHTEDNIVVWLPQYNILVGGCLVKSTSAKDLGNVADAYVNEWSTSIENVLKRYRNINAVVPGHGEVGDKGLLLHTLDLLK

Compound	rapid-freeze-quench X-ray absorption spectroscopy (bi-Zn(II)-BcII)	stopped-flow absorption (pre-steady state); RFQ Zn K-edge XAS of ES complex (mono-Zn(II)-Sfh-I)	stopped-flow absorption, single turnover (bi-Zn(II)-NDM-1 [1])	stopped-flow absorption (bi-Zn(II)-NDM-1 [2])
C[C@@H](O)[C@H]1C(=O)N2C(C(=O)O)=C(SCCN=CN)C[C@H]12 [imipenem]	X-ray absorption spectroscopy to analyse hydrolysis of imipenem by the B1 enzyme bi-Zn(II)-BcII	imipenem hydrolysis by the mono-Zn(II) B2 lactamase Sfh-I	Hydrolysis of imipenem by bi-Zn(II)-NDM-1 under single turnover conditions	
C[C@@H](O)[C@H]1C(=O)N2C(C(=O)O)=C(S[C@@H]3CN[C@H](C(=O)N(C)C)C3)[C@H](C)[C@H]12 [meropenem]				We also assayed hydrolysis of another carbapenem, meropenem, by bi-Zn(II)-NDM-1
